{"source": "the NIST ThermoML archive (doi:10.1021/je049657g)", "conditions": "298.15 K, Liquid; for viscosity: 101 kPa, Capillary tube (Ostwald / Ubbelohde) method; for mass density: 101.33 kPa", "note": "Numbers after ± are expanded uncertainties."}
{"molecule": "O=C1CCCN1", "note": "[2-pyrrolidinone]", "values": [{"measurement": "viscosity", "value": "13.19 ± 0.17", "unit": "mPa·s"}, {"measurement": "mass density", "value": "1106.82 ± 2", "unit": "kg/m3"}]}
{"molecule": "CC(=O)N(C)C", "note": "[N,N-dimethylethanamide]", "values": [{"measurement": "viscosity", "value": "0.944 ± 0.008", "unit": "mPa·s"}, {"measurement": "mass density", "value": "936.54 ± 1.4", "unit": "kg/m3"}]}
{"molecule": "CN1CCCC1=O", "note": "[N-methylpyrrolidone]", "values": [{"measurement": "viscosity", "value": "1.672 ± 0.014", "unit": "mPa·s"}, {"measurement": "mass density", "value": "1027.91 ± 1.6", "unit": "kg/m3"}]}
{"molecule": "CN(C)C=O", "note": "[dimethylformamide]", "values": [{"measurement": "viscosity", "value": "0.804 ± 0.007", "unit": "mPa·s"}, {"measurement": "mass density", "value": "943.65 ± 1.5", "unit": "kg/m3"}]}
